Results on ten compounds are retold here after patent EP3959993B1, “METHOD FOR SOLVENT FREE PRODUCTION OF AROMA CONCENTRATES” (Symrise AG, priority 2020, dated 2022).

Data set [1] is described as follows: Influence of the amount of NaCl on the distribution between oil phase and water phase (Example 5). The class given is physicochemical.
Data set [2] in a line: Second oil phase obtained by adding NaCl to the water phase (Example 4). The class given is physicochemical. To be noted: after separating oil phases I and II. How it is done: Cross linked polystyrene was used as adsorbent material. The volume flux for loading the adsorbent was 300 ml/min.
The adsorbent was heated to 150 °C, the temperature of the applied water steam was 160 °C.
The water steam flux was 10 g/min and was applied for 100 min.
The oil and water phases were separated.
A second oil phase was separated and was collected.

On to `CCCC(CC=O)OCC` (stereo not shown) [3-ethoxy-hexanal], for which the “Distribution in [%] between oil phase and water phase after condensation: Oil phase” value in data set [1] (NaCl 0%) was 48.4%; in data set [1] (NaCl 27.8 %), 78.9%; in data set [1] (NaCl 41.67%) it was 89%; in data set [1] (NaCl 55.56 %) it was 94.6%; in data set [1] (NaCl 69.44 %) it was 97.4%; in data set [1] (NaCl 83.33 %), 98.5%. In addition, the “Distribution in [%] between oil phase and water phase after condensation: Water phase” value came out at 51.6% in data set [1] (NaCl 0%); 21.1% in data set [1] (NaCl 27.8 %); 11% in data set [1] (NaCl 41.67%); 5.4% in data set [1] (NaCl 55.56 %); 2.6% in data set [1] (NaCl 69.44 %); 1.5% in data set [1] (NaCl 83.33 %). Besides, the “Loss in the water phase” value in data set [2] is 1,5%.

On to `O=Cc1ccccc1` [benzaldehyde], for which the “Distribution in [%] between oil phase and water phase after condensation: Oil phase” value in data set [1] (NaCl 0%) is on record as 27%; in data set [1] (NaCl 27.8 %) it was 57.5%; in data set [1] (NaCl 41.67%), 64.7%; in data set [1] (NaCl 55.56 %), 70.4%; in data set [1] (NaCl 69.44 %), 76.7%; in data set [1] (NaCl 83.33 %), 80.8%. Also, the “Distribution in [%] between oil phase and water phase after condensation: Water phase” value in data set [1] (NaCl 0%) stood at 73%; in data set [1] (NaCl 27.8 %), 42.5%; in data set [1] (NaCl 41.67%) it was 35.3%; in data set [1] (NaCl 55.56 %) it was 29.6%; in data set [1] (NaCl 69.44 %) it was 23.3%; in data set [1] (NaCl 83.33 %), 19.2%. Further, the “Loss in the water phase” value in data set [2] is given as 19,2%.

In the case of `CC/C=C\CCO` [cis-3-hexenol], the “Distribution in [%] between oil phase and water phase after condensation: Oil phase” value in data set [1] (NaCl 0%) amounted to 30.6%; in data set [1] (NaCl 27.8 %), 62.8%; in data set [1] (NaCl 41.67%), 73.3%; in data set [1] (NaCl 55.56 %), 80.5%; in data set [1] (NaCl 69.44 %), 85.6%; in data set [1] (NaCl 83.33 %) it was 89.2%. Moreover, the “Distribution in [%] between oil phase and water phase after condensation: Water phase” value in data set [1] (NaCl 0%) was found to be 69.4%; in data set [1] (NaCl 27.8 %), 37.2%; in data set [1] (NaCl 41.67%), 26.7%; in data set [1] (NaCl 55.56 %), 19.5%; in data set [1] (NaCl 69.44 %), 14.4%; in data set [1] (NaCl 83.33 %), 10.8%. In data set [2], the “Loss in the water phase” value was 10,8%.

Turning to `CCCCCC(=O)O` [caproic acid], the “Distribution in [%] between oil phase and water phase after condensation: Oil phase” value in data set [1] (NaCl 0%) turned out to be 43.5%; in data set [1] (NaCl 27.8 %), 84.9%; in data set [1] (NaCl 41.67%) it was 91.5%; in data set [1] (NaCl 55.56 %), 94.9%; in data set [1] (NaCl 69.44 %) it was 97%; in data set [1] (NaCl 83.33 %) it was 97.9%. The “Distribution in [%] between oil phase and water phase after condensation: Water phase” value in data set [1] (NaCl 0%) amounted to 56.5%; in data set [1] (NaCl 27.8 %), 15.1%; in data set [1] (NaCl 41.67%), 8.5%; in data set [1] (NaCl 55.56 %), 5.1%; in data set [1] (NaCl 69.44 %), 3%; in data set [1] (NaCl 83.33 %) it was 2.1%. In addition, the “Loss in the water phase” value in data set [2] is recorded as 2,1%.

Consider `CCCCCCO` [hexanol], for which the “Distribution in [%] between oil phase and water phase after condensation: Oil phase” value is recorded as 59.2% in data set [1] (NaCl 0%); 89.6% in data set [1] (NaCl 27.8 %); 93.8% in data set [1] (NaCl 41.67%); 96.2% in data set [1] (NaCl 55.56 %); 97.5% in data set [1] (NaCl 69.44 %); 98.2% in data set [1] (NaCl 83.33 %). Also, the “Distribution in [%] between oil phase and water phase after condensation: Water phase” value in data set [1] (NaCl 0%) came to 40.8%; in data set [1] (NaCl 27.8 %), 10.4%; in data set [1] (NaCl 41.67%) it was 6.2%; in data set [1] (NaCl 55.56 %), 3.8%; in data set [1] (NaCl 69.44 %) it was 2.5%; in data set [1] (NaCl 83.33 %), 1.8%. Also, in data set [2], the “Loss in the water phase” value was 1,8%.

In the case of `CCC/C=C/C=O` [trans-2-hexenal], the “Distribution in [%] between oil phase and water phase after condensation: Oil phase” value was determined as 35.5% in data set [1] (NaCl 0%); 63.6% in data set [1] (NaCl 27.8 %); 71.5% in data set [1] (NaCl 41.67%); 76.8% in data set [1] (NaCl 55.56 %); 83.3% in data set [1] (NaCl 69.44 %); 87.5% in data set [1] (NaCl 83.33 %). For the same compound, the “Distribution in [%] between oil phase and water phase after condensation: Water phase” value in data set [1] (NaCl 0%) turned out to be 64.5%; in data set [1] (NaCl 27.8 %), 36.4%; in data set [1] (NaCl 41.67%) it was 28.5%; in data set [1] (NaCl 55.56 %) it was 23.2%; in data set [1] (NaCl 69.44 %), 16.7%; in data set [1] (NaCl 83.33 %), 12.5%. Moreover, the “Loss in the water phase” value in data set [2] was 12,5%.

In the case of `CCC(C)COC(C)=O` (stereo not shown) [2-methyl butyl acetate], the “Distribution in [%] between oil phase and water phase after condensation: Oil phase” value worked out at 79.3% in data set [1] (NaCl 0%); 97.1% in data set [1] (NaCl 27.8 %); 98.6% in data set [1] (NaCl 41.67%); 99.2% in data set [1] (NaCl 55.56 %); 99.7% in data set [1] (NaCl 69.44 %); 99.8% in data set [1] (NaCl 83.33 %). Besides, the “Distribution in [%] between oil phase and water phase after condensation: Water phase” value is 20.7% in data set [1] (NaCl 0%); 2.9% in data set [1] (NaCl 27.8 %); 1.4% in data set [1] (NaCl 41.67%); 0.8% in data set [1] (NaCl 55.56 %); 0.3% in data set [1] (NaCl 69.44 %); 0.2% in data set [1] (NaCl 83.33 %). Moreover, in data set [2], the “Loss in the water phase” value is 0,2%.

In the case of `CCOC(=O)C(C)CC` (stereo not shown) [ethyl 2-methyl butyrate], the “Distribution in [%] between oil phase and water phase after condensation: Oil phase” value turned out to be 66.1% in data set [1] (NaCl 0%); 95% in data set [1] (NaCl 27.8 %); 97.9% in data set [1] (NaCl 41.67%); 98.8% in data set [1] (NaCl 55.56 %); 99.7% in data set [1] (NaCl 69.44 %); 100% in data set [1] (NaCl 83.33 %). Moreover, the “Distribution in [%] between oil phase and water phase after condensation: Water phase” value in data set [1] (NaCl 0%) stood at 33.9%; in data set [1] (NaCl 27.8 %), 5%; in data set [1] (NaCl 41.67%), 2.1%; in data set [1] (NaCl 55.56 %) it was 1.2%; in data set [1] (NaCl 69.44 %) it was 0.3%; in data set [1] (NaCl 83.33 %), 0%. For the same compound, the “Loss in the water phase” value in data set [2] was 0,0%.

Consider `CCCCCC=O` [hexanal], for which the “Distribution in [%] between oil phase and water phase after condensation: Oil phase” value in data set [1] (NaCl 0%), in data set [1] (NaCl 27.8 %), in data set [1] (NaCl 41.67%), in data set [1] (NaCl 55.56 %), in data set [1] (NaCl 69.44 %) and in data set [1] (NaCl 83.33 %) was 100% each time. Further, the “Distribution in [%] between oil phase and water phase after condensation: Water phase” value in data set [1] (NaCl 0%), in data set [1] (NaCl 27.8 %), in data set [1] (NaCl 41.67%), in data set [1] (NaCl 55.56 %), in data set [1] (NaCl 69.44 %) and in data set [1] (NaCl 83.33 %) was 0% each time. Also, the “Loss in the water phase” value in data set [2] was 0,0%.

Regarding `CCC/C=C/COC(C)=O` [trans-2-hexenyl acetate], the “Distribution in [%] between oil phase and water phase after condensation: Oil phase” value in data set [1] (NaCl 0%) was determined as 100%; in data set [1] (NaCl 27.8 %), 97.2%; in data set [1] (NaCl 41.67%) it was 100%; in data set [1] (NaCl 55.56 %) it was 100%; in data set [1] (NaCl 69.44 %) it was 100%; in data set [1] (NaCl 83.33 %), 100%. The “Distribution in [%] between oil phase and water phase after condensation: Water phase” value in data set [1] (NaCl 0%) stood at 0%; in data set [1] (NaCl 27.8 %), 2.8%; in data set [1] (NaCl 41.67%), 0%; in data set [1] (NaCl 55.56 %) it was 0%; in data set [1] (NaCl 69.44 %), 0%; in data set [1] (NaCl 83.33 %), 0%. Besides, in data set [2], the “Loss in the water phase” value is listed as 0,0%.
